The source made the active and inactive calls.
Assays:
[1] = cytotoxicity toward NIH3T3 fibroblasts, dose response, counter-screen, cell-based, ATP luminescence, mouse fibroblasts (AID 2010); type: functional;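 further: cells exposed to compound for about 90 hours before reading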
[2] = Fluorescence-based cell-based high throughput dose response assay for inhibitors of the interaction of nucleotide-binding oligomerization domain containing 2 (NOD2) and the receptor-interacting serine-threonine kinase 2 (RIPK2).; type: functional; conditions: Homo sapiens
Beta Lactamase = Beta Lactamase (Pseudomonas aeruginosa, UniProt Q932Y6); experiment: beta-lactamase reporter inhibitor potency, dose response, artefact control for NOD2-RIPK2 interaction inhibitor project, BLA reporter cells, FRET fluorescence (AID 651552); type: functional, cell-based
Beta Lactamase, sequence (Q932Y6 whole entry): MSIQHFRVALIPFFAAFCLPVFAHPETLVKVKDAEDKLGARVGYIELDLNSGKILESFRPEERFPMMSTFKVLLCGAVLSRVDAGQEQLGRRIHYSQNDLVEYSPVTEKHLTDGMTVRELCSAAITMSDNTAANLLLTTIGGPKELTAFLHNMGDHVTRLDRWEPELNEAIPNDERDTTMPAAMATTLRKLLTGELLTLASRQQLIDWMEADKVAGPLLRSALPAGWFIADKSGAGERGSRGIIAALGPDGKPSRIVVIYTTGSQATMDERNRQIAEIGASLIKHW

[3] = inhibitors of intracellular T. cruzi replication, confirmation, NIH3T3 host cells, beta-gal luminescence (AID 2044); type: functional, cell-based;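 further: intracellular parasites grown in NIH/3T3 mouse fibroblasts as host cells; luminescent beta-galactosidase reporter signal from transgenic T. cruzi replicating inside host cells; inhibitors lower the luminescence signal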
[4] = biological target: DNA dC->dU-editing enzyme APOBEC-3A (Homo sapiens, UniProt P31941); experiment: APOBEC3A DNA deaminase inhibitors, dose response, biochemical (AID 504722); type: functional
DNA dC->dU-editing enzyme APOBEC-3A, sequence (P31941 whole entry): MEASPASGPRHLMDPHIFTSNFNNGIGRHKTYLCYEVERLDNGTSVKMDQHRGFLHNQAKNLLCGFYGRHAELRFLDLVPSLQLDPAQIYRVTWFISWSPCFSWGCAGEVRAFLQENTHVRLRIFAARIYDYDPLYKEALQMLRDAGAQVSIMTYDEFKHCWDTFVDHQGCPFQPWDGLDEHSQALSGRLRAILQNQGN

[5] = biological target: DNA dC->dU-editing enzyme APOBEC-3G (Homo sapiens, UniProt Q9HC16); experiment: Dose Response confirmation of small molecule APOBEC3G DNA Deaminase Inhibitors via a fluorescence-based single-stranded DNA deaminase assay. [Related pubchem assays (depositor defined):AID493012, AID493028]; type: functional
[6] = biological target: Glucose-6-phosphate 1-dehydrogenase (Homo sapiens, UniProt P11413); experiment: human G6PD enzyme inhibitors, dose response, selectivity assay for P. falciparum G6PD inhibitor project, biochemical, fluorescence (AID 504792); type: functional
Glucose-6-phosphate 1-dehydrogenase, sequence (P11413 whole entry): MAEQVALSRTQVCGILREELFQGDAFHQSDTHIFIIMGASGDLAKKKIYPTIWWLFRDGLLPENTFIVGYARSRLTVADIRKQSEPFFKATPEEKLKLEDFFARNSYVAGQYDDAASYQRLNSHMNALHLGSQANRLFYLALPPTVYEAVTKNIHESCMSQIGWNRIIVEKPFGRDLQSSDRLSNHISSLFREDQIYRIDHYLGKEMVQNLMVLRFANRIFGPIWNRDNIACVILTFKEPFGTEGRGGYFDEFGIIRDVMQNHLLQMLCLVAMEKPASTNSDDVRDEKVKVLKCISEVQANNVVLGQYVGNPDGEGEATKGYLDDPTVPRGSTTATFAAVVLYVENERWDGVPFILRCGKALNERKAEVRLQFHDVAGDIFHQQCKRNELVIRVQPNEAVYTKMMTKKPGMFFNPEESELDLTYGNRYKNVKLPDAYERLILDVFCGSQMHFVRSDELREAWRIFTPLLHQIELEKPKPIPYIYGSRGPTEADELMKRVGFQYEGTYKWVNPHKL

[7] = HeLa cell cytotoxicity, dose response, cytotoxicity control for MgcRacGAP inhibitor project (AID 624300); type: functional
[8] = biological target: T1, Rac GTPase-activating protein 1 (Homo sapiens, UniProt Q9H0H5); experiment: MgcRacGAP GTPase-activating activity inhibitors, confirmation, biochemical, ADP Hunter fluorescence, primary and confirmatory (AID 624330); type: functional
T1 sequence (Q9H0H5 whole entry): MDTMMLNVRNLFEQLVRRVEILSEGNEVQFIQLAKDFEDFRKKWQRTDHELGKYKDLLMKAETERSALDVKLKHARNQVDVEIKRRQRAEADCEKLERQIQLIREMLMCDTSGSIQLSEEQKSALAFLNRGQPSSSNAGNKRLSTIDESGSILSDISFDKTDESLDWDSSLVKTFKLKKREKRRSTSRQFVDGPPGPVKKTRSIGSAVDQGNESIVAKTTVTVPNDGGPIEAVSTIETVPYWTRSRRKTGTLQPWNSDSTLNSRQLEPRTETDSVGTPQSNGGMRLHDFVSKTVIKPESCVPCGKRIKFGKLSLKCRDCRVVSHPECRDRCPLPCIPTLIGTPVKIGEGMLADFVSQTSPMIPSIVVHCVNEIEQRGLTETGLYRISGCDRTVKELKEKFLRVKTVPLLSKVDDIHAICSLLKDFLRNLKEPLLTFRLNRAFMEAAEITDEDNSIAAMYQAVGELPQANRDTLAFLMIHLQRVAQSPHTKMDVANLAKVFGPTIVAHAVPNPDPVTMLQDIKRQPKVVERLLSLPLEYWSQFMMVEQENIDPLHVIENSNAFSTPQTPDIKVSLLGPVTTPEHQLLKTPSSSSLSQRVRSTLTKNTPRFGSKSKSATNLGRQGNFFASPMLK

[9] = biological target: T2, High affinity choline transporter 1 (Homo sapiens, UniProt Q9GZV3); experiment: CHT inhibitors, dose response, cell-based, 5-point CRC, membrane potential dye (AID 504840); type: functional
T2 sequence (Q9GZV3 whole entry): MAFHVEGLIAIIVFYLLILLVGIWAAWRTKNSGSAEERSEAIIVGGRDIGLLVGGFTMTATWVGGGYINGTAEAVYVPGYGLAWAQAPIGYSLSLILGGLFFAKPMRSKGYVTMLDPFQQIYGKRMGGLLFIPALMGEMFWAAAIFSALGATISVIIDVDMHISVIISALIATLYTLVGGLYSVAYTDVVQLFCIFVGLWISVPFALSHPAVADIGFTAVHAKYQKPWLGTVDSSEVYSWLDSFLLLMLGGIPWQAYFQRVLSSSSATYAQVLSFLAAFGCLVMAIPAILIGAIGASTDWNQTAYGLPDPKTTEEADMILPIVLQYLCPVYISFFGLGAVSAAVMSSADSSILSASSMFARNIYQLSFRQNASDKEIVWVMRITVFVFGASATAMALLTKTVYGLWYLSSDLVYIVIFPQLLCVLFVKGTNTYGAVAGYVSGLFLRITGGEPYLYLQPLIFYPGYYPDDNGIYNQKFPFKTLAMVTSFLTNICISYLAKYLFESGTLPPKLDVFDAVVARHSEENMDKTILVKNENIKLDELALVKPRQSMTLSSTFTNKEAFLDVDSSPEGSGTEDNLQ

Large T antigen = Large T antigen (Simian virus 40, UniProt P03070); type: functional, Betapolyomavirus macacae;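 further: Confirmatory-stage PubChem screen for compounds that inhibit SV40 T antigen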
Large T antigen, sequence (P03070 whole entry): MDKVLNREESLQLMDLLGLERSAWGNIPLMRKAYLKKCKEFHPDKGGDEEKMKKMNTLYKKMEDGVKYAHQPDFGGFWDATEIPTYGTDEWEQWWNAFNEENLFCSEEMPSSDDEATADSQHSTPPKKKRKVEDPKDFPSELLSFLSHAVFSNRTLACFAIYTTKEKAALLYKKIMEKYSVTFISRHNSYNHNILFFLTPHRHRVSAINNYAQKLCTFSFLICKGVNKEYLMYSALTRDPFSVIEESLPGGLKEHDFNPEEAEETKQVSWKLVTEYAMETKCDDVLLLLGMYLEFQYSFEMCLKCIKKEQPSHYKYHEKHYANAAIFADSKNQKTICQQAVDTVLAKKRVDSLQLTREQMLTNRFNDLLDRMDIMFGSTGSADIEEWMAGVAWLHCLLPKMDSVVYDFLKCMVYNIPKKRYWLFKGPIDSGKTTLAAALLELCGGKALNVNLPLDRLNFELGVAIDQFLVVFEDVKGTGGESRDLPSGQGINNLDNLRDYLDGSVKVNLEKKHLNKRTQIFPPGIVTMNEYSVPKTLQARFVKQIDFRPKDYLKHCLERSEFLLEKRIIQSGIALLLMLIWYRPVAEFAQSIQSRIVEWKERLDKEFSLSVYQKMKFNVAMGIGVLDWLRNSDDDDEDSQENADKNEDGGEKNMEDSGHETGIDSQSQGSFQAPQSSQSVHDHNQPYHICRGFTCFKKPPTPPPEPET

Mu-type opioid receptor = Mu-type opioid receptor (Homo sapiens, UniProt P35372); type: functional, cell-based;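 further: U2OS cells with beta-arrestin recruitment to OPRM1 by beta-gal complementation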
[10] = biological target: 5-hydroxytryptamine receptor 2A (Mus musculus, UniProt P35363); type: functional, cell-based;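 further: CHO-K1 cells with tagged receptor and beta-arrestin; agonist potency measured as compound-induced activation of the receptor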
5-hydroxytryptamine receptor 2A, sequence (P35363 whole entry): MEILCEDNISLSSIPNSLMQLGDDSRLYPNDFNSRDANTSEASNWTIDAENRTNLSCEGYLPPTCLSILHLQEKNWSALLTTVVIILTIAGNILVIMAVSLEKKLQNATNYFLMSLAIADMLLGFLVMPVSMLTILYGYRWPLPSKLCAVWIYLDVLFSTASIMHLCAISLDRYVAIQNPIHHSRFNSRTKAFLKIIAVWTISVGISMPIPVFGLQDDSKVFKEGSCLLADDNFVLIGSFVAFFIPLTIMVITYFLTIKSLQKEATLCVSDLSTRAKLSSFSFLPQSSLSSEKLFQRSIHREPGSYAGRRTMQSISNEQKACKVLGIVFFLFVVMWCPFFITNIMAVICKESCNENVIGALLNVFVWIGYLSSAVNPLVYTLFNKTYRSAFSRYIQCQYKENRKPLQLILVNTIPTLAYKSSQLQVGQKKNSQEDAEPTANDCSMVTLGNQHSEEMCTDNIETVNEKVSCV

[11] = human group III sPLA2 inhibitors, dose response, biochemical, QFRET, IC50 (AID 743457);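 further: green fluorescence rise as the enzyme cleaves BODIPY PC-A2 in liposomes; potency for inhibition of the enzyme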
Cytochrome P450 2D6 = Cytochrome P450 2D6 (Homo sapiens, UniProt P10635);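 further: CYP2D6 member of a cytochrome P450 panel assay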
Cytochrome P450 2D6, sequence (P10635 whole entry): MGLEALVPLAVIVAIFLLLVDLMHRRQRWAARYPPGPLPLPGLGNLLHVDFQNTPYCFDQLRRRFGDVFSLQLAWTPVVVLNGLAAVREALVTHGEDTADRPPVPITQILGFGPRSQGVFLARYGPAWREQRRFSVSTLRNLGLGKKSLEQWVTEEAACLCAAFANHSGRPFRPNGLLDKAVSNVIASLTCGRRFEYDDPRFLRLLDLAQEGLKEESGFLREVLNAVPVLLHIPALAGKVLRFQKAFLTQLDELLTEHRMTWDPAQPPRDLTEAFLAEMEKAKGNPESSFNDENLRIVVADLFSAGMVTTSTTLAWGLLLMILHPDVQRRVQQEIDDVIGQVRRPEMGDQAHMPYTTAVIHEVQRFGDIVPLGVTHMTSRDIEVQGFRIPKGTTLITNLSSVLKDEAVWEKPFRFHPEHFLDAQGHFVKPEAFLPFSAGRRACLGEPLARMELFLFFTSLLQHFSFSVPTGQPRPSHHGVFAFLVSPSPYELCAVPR

Cytochrome P450 1A2 = biological target: T3, Cytochrome P450 1A2 (Homo sapiens, UniProt P05177);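 further: PubChem cytochrome P450 panel assay, CYP1A2 panel member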
T3 sequence (P05177 whole entry): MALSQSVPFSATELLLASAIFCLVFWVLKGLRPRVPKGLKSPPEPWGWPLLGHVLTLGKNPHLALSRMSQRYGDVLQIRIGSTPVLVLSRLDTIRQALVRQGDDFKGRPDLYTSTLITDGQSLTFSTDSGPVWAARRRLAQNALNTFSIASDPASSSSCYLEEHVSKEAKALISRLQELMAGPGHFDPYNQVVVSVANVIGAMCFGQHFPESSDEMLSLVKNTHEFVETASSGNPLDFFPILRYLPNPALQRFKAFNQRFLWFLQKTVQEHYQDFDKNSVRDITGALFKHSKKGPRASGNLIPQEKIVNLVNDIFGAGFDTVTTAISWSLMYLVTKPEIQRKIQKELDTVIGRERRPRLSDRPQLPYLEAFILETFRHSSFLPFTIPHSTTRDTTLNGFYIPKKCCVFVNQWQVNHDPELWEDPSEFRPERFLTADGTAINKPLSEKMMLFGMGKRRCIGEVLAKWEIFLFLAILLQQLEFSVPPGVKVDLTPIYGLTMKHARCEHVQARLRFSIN

[12] = biological target: Disintegrin and metalloproteinase domain-containing protein 17 (Homo sapiens, UniProt P78536); experiment: exosite inhibitors of ADAM17, dose response, biochemical (AID 743260)
Disintegrin and metalloproteinase domain-containing protein 17, sequence (P78536 whole entry, the tested form may be a part): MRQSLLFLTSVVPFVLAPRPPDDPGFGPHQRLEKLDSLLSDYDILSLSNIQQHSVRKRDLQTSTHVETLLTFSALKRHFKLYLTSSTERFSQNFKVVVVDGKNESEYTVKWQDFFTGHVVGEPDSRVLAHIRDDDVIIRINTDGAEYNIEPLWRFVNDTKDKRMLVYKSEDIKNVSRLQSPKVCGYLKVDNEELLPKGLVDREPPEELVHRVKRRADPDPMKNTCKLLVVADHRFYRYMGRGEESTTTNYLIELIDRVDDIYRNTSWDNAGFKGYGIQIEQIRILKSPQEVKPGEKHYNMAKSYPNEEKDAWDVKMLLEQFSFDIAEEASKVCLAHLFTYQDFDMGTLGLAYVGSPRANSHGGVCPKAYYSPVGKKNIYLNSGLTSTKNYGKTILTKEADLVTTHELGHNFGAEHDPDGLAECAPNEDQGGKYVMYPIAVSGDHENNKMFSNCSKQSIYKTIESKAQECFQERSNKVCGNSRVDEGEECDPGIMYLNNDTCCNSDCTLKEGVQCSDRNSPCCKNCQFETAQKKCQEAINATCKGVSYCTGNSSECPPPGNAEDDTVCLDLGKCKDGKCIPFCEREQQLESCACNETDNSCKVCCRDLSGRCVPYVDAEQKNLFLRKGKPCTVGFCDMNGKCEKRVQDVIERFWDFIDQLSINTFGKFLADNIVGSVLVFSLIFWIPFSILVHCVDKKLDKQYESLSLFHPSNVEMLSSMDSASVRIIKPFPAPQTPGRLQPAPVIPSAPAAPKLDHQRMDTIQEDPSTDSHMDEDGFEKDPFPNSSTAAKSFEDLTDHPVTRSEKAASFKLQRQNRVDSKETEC

[13] = ADAM10 protease inhibitors, dose response, selectivity assay for ADAM17 exosite inhibitor project, biochemical, FRET peptide substrate, recombinant human ADAM10 (AID 743259);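 further: ADAM10 enzyme cleaving a FRET peptide substrate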
[14] = NIH/3T3 fibroblast cytotoxicity, dose response, cytotoxicity control for T. cruzi growth inhibitor project, cell-based, cherry-pick samples, set 2 (AID 651817); type: functional; conditions: NIH3T3
[15] = miR-122 activators in hepatoma reporter cells, dose response, cell-based, Huh7 psiCHECK-miR122, Renilla luciferase, cherry-picked (AID 651956); type: functional;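 further: huh7 hepatoma cells stably carrying a psiCHECK-2 miR-122 sensor plasmid; renilla luciferase signal reporting endogenous miR-122 activity after 48 h compound exposure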
[16] = inhibitors of CMV-promoter luciferase reporter, dose response, counter-screen for Pax8 inhibitor project, cell-based, HEK293, luminescence, dry powder (AID 743020); type: functional
[17] = NIH:OVCAR-3 ovarian cancer cell cytotoxicity, dose response, PAX8 inhibitor project, plate reader, dry powder samples (AID 743044); type: functional, cell-based
Paired box protein Pax-8 = Paired box protein Pax-8 (Homo sapiens, UniProt Q06710); experiment: inhibitors of PAX8-driven TPO luciferase reporter, dose response, RMG-I cells, cherry-pick (AID 687027); type: functional, cell-based;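 further: luciferase reporter driven by Pax8 target thyroperoxidase promoter measured by SteadyGlo luminescence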
Paired box protein Pax-8, sequence (Q06710 whole entry): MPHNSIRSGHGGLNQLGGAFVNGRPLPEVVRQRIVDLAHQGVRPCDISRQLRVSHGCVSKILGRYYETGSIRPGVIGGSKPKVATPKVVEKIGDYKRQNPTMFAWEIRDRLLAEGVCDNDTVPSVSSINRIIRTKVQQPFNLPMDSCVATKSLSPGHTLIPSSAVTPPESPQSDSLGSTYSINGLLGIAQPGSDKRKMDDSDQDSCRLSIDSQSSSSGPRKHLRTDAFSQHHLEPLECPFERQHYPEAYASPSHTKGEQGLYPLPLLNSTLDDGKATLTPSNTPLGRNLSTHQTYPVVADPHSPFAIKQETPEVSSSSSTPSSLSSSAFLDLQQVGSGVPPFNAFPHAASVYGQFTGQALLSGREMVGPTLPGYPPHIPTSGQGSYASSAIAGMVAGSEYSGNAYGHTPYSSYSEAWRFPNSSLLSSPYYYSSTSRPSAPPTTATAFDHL

[18] = IGROV1 ovarian cancer cell cytotoxicity, dose response, PAX8 inhibitor project, plate reader, dry powder samples (AID 743043); type: functional, cell-based; conditions: IGROV-1
[19] = cytotoxicity in OVCAR8 ovarian cancer cells, dose response, PAX8 project, cell-based, plate reader, dry powder samples (AID 743197); type: functional; conditions: OVCAR-8
[20] = inhibitors of TNFa-stimulated NF-kB luciferase reporter, dose response, selectivity assay for EBV LMP1 NF-kB inhibitor project, HEK293 LMP1 reporter cells, dry powder, set 2 (AID 624369); type: functional
[21] = Late stage assay provider results from the probe development effort to identify selective inhibitors of heat shock protein 90 (HSP90): Absorbance-based cell proliferation assay in MCF7 cells.; type: functional
[22] = Late stage assay provider results from the probe development effort to identify selective inhibitors of heat shock protein 90 (HSP90): Absorbance-based cell proliferation assay in SKBR3 cells.; type: functional; conditions: SK-BR-3
[23] = biological target: Endoplasmic reticulum aminopeptidase 1 (Homo sapiens, UniProt Q9NZ08); experiment: ERAP1 aminopeptidase inhibitors, dose response, biochemical, cherry-pick, set 2, plate reader (AID 743314)
Endoplasmic reticulum aminopeptidase 1, sequence (Q9NZ08 whole entry): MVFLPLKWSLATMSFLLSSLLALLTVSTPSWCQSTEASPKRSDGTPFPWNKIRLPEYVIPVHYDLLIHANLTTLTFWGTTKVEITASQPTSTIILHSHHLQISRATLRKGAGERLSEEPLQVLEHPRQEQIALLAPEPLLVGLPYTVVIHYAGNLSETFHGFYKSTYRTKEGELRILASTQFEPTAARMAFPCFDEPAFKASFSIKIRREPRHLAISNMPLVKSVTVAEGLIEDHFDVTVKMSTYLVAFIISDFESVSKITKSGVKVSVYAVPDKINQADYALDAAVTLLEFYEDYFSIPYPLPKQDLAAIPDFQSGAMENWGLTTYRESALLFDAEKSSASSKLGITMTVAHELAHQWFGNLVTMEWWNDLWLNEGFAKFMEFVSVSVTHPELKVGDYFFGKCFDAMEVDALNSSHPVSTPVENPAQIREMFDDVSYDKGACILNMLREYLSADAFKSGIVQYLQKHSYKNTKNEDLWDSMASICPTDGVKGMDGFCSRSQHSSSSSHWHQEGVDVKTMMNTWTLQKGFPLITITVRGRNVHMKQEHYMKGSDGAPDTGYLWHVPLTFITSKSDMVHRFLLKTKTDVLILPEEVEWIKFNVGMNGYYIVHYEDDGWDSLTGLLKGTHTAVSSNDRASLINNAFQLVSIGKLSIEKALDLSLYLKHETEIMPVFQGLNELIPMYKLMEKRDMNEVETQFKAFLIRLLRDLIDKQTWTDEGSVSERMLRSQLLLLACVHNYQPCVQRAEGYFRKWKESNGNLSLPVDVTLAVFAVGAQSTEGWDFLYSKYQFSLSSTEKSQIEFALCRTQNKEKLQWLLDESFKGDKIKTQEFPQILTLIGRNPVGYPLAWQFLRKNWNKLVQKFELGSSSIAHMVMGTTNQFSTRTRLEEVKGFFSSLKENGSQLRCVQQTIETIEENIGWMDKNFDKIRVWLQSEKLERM

[24] = HEK293T cytotoxicity, dose response, cytotoxicity control for miR-122 modulator project, cell-based, inhibitor set, cherry-pick, set 2 (AID 720697); type: functional
[25] = A Cell-Based Confirmatory Screen for Compounds that Inhibit VEEV, TC-83 (8).; type: functional

In the case of `Cc1cc(C)c2c(=O)n(CC(=O)Nc3ccc(Cl)cc3)sc2n1`, the EC50 [1] is reported as > 30 µM (not active), the IC50 [2] is reported as 9.56 µM (active) and the IC50 (Beta Lactamase) is reported as 23.6 µM (inactive). The EC50 [3] was 1.39 µM (active), the IC50 [4] was > 100 µM (inactive) and the IC50 [5] was 3.35 µM (active). The IC50 [6] was 20.7 µM (inactive).

With `COc1cc(/C=C2/C(=O)ON=C2c2ccccc2)ccc1O` the CC50 [7] was 100 µM (active), the IC50 [8] was 100 µM (active) and the IC50 [9] was 9.6 µM (active). For the same compound, the IC50 (Large T antigen) was 9.98 µM (active).

For `O=C(CSc1ccc2ccccc2c1)NCCc1ccc(O)c(O)c1`, the EC50 (Mu-type opioid receptor) was 92.5 µM (inactive) and the EC50 [10] was 2.67 µM (active).

In the case of `O=C(CSCc1ccccc1Cl)NNC(=S)Nc1ccccc1`, the IC50 [11] is reported as > 122 µM (inactive), the AC50 (Cytochrome P450 2D6) is reported as 14.1 µM (inconclusive) and the AC50 (Cytochrome P450 1A2) is reported as 15.8 µM (inconclusive).

For `O=C(C[C@H]1C/C=C\CC[C@@H](Cc2ccc(F)cc2)C(=O)O[C@@H](c2ccccc2)CNC1=O)N[C@H](CO)Cc1ccccc1`, the IC50 [12] was > 69.5 µM (inactive) and the IC50 [13] was > 69.5 µM (inactive).

In the case of `C[C@H]1CN([C@@H](C)CO)C(=O)c2cccc(NC(=O)NC3CCCCC3)c2O[C@H]1CN(C)S(=O)(=O)c1ccc(F)cc1`, the AC50 [14] is reported as 28.7 µM (active).

In the case of `CCCNC(=O)C[C@H]1CC[C@@H]2[C@@H](COc3ccc(NC(=O)c4ccc(C(F)(F)F)cc4)cc3C(=O)N2C)O1`, the AC50 [15] is reported as 26.9 µM (active).

In the case of `CS(=O)(=O)Nc1ccc2c(c1)[C@@H]1C[C@H](CC(=O)NCc3ccc(Oc4ccccc4)cc3)O[C@@H](CO)[C@@H]1O2`, the AC50 [16] is reported as 39.7 µM (active), the AC50 [17] is reported as 20.7 µM (active) and the AC50 (Paired box protein Pax-8) is reported as 6.4 µM (active).

For `C[C@@H]1CN([C@H](C)CO)C(=O)c2cc(NS(=O)(=O)c3ccc(Cl)cc3)ccc2O[C@@H](C)CCCCO[C@H]1CN(C)C(=O)Nc1ccc(C(F)(F)F)cc1`, the AC50 [17] was 17.9 µM (active), the AC50 [18] was 35.2 µM (active) and the AC50 (Paired box protein Pax-8) was 2.86 µM (active). The AC50 [19] was 29.6 µM (active).

With `CCCNC(=O)c1cc2c(c(-c3cccc(-c4cccc(F)c4)c3)n1)[C@H](CCO)N([S@@+]([O-])C(C)(C)C)C2` the AbsAC35 [20] was 250.06 µM.

In the case of `COC(=O)CCCCOc1ccc2cc(Br)c(=O)oc2c1`, the IC50 [21] is reported as > 100 µM (inactive) and the IC50 [22] is reported as > 100 µM (inactive).

For `COc1ccc2c3c([nH]c2c1)[C@H](CO)N(Cc1cc(F)ccc1F)CC31CN(C)C1`, the AC50 [23] was 6.53 µM (active).

For `O=C(Nc1ccccc1)N1C[C@@H]2[C@H](c3ccccc31)[C@H](CO)N2Cc1cocn1`, the AC50 [24] was 9.02 µM (active).

With `CCN1CCN(Cc2nc3ccc(C#N)cc3c(=O)n2-c2ccccc2)CC1` the IC50 [25] was 1.14 µM (active).

Source: ChEMBL document CHEMBL1201862, “PubChem BioAssay data set” (2004)
